The values that follow come from ChEMBL document CHEMBL5500375, “Design, synthesis, and evaluation of N1,N3-dialkyldioxonaphthoimidazoliums as antibacterial agents against methicillin-resistant Staphylococcus aureus” (Eur J Med Chem, 2024).

In data set [1] the test system is Staphylococcus aureus. Put plainly: Antibacterial agents against methicillin-resistant Staphylococcus aureus USA300 assessed as absence of growth measured after 18 hrs by micro-dilution method. The data set is classed as functional. In general terms: Dilution methods test growth across graded concentrations, often in twofold steps.
In data set [2] the test system is Staphylococcus aureus. Put plainly: Antibacterial agents against methicillin-sensitive Staphylococcus aureus Newman assessed as absence of growth measured after 18 hrs by micro-dilution method. The data set is classed as functional.
The test system of data set [3] is Bacillus subtilis. Put plainly: Antibacterial agents against Bacillus subtilis PS380 assessed as absence of growth measured after 18 hrs by micro-dilution method. The format is functional.
The test system of data set [4] is Staphylococcus aureus. Put plainly: Antibacterial agents against c5-resistant mutant of methicillin-resistant Staphylococcus aureus SA3 m1 assessed as absence of growth measured after 18 hrs by micro-dilution method. The data set is classed as functional.
For data set [5], the system named is Staphylococcus aureus. Nature of the data set: Antibacterial agents against c5-resistant mutant of methicillin-resistant Staphylococcus aureus SA3 m2 assessed as absence of growth measured after 18 hrs by micro-dilution method. The format is functional.
Data set [6] deals with Staphylococcus aureus. Nature of the data set: Antibacterial agents against c5-resistant mutant of methicillin-resistant Staphylococcus aureus SA3 m4 assessed as absence of growth measured after 18 hrs by micro-dilution method. The data set is classed as functional.
A short description of data set [7]: In vivo toxicity in Drosophila melanogaster strain Oregon R assessed as survival rate at 0.1 to 1 mg/ml measured upto 72 hrs relative to control. The format is organism-based. The following applies: Oregon R, at 0.1 to 1 mg/mL, dose 0.1-1 mg/ml.
Data set [8] can be described thus: Cytotoxicity against human HDFa cells assessed as cell survival measured after 72 hrs incubation by Cell Titer-Glo luminescent assay. The format is toxicity, cell-based. A general note: ATP-based viability assays read luminescence as a measure of living cells.
The subject of data set [9] is Staphylococcus aureus. Put plainly: Antibacterial agents against c5-resistant mutant of methicillin-resistant Staphylococcus aureus SA3 m2 assessed as absence of growth at 0.19 ug/ml measured after overnight incubation under anaerobic condition in presence of N-acetylcysteine by micro-dilution method. The format is functional, organism-based. The following applies: dose 0.19 µg/ml.

The test system of data set [10] is Staphylococcus aureus. Put plainly: Antibacterial agents against c5-resistant mutant of methicillin-resistant Staphylococcus aureus SA3 m5 assessed as absence of growth at 0.19 ug/ml measured after overnight incubation under anaerobic condition in presence of N-acetylcysteine by micro-dilution method. The data set is classed as functional, organism-based. As to conditions: dose 0.19 µg/ml.

Data set [11] concerns Staphylococcus aureus. Put plainly: Antibacterial agents against c5-resistant mutant of methicillin-resistant Staphylococcus aureus SA3 m6 assessed as absence of growth at 0.19 ug/ml measured after overnight incubation under anaerobic condition in presence of N-acetylcysteine by micro-dilution method. As to conditions: dose 0.19 µg/ml. The data set is classed as functional, organism-based.

For data set [12], the system named is Staphylococcus aureus. Nature of the data set: Induction of ROS generation in methicillin-resistant Staphylococcus aureus SA3 using hydroxyphenyl fluorescein at 0.19 ug/ml under anaerobic condition. As to conditions: dose 0.19 µg/ml. The data set is classed as functional, organism-based.
The test system of data set [13] is Staphylococcus aureus. Nature of the data set: Induction of ROS generation in methicillin-resistant Staphylococcus aureus USA300 using hydroxyphenyl fluorescein at 0.19 ug/ml under anaerobic condition. As to conditions: dose 0.19 µg/ml. The format is functional, organism-based.
The test system of data set [14] is Pseudomonas aeruginosa. Put plainly: Antibacterial agents against gram negative Pseudomonas aeruginosa PA14 assessed as reduction in colony forming unit at 0.78 ug/ml measured upto 10 hrs in presence of 0.05 ug/ml Polymyxin B by LB agar medium method. The format is functional, organism-based. The following applies: dose 0.78 µg/ml.
The test system of data set [15] is Escherichia coli. Put plainly: Antibacterial agents against gram negative Escherichia coli MG1655 assessed as reduction in colony forming unit at 0.78 ug/ml measured upto 10 hrs in presence of 0.05 to 0.2 ug/ml Polymyxin B by LB agar medium method. The data set is classed as functional, organism-based. The following applies: dose 0.78 µg/ml.
The test system of data set [16] is Pseudomonas aeruginosa. Nature of the data set: Antibacterial agents against gram negative Pseudomonas aeruginosa PA14 assessed as reduction in colony forming unit at 0.78 ug/ml measured upto 10 hrs in presence of 0.2 ug/ml Polymyxin B by LB agar medium method. The data set is classed as functional. As to conditions: dose 0.78 µg/ml.
Data set [17] relates to Pseudomonas aeruginosa. Nature of the data set: Antibacterial agents against gram negative Pseudomonas aeruginosa PA14 assessed as reduction in colony forming unit at 0.78 ug/ml in presence of 0.1 to 0.2 ug/ml Polymyxin B by LB agar medium method. The data set is classed as functional, organism-based. The following applies: dose 0.78 µg/ml, time 0-10 hrs, TDE = time-dependent effect.

Data set [18] has as its system Staphylococcus aureus. Put plainly: In vivo antibacterial activity against methicillin-resistant Staphylococcus aureus SA3 infected in dorsal thorax of Drosophila melanogaster strain Oregon R assessed as survival time of Drosophila at 0.2 mg/ml measured upto 72 hrs. The format is functional.
For data set [19], the system named is Staphylococcus aureus. Nature of the data set: In vivo antibacterial activity against methicillin-resistant Staphylococcus aureus SA3 infected in dorsal thorax of Drosophila melanogaster strain Oregon R assessed as survival time of Drosophila at 0.04 mg/ml measured upto 72 hrs relative to control. The format is functional, organism-based.
Data set [20] relates to Staphylococcus aureus. Nature of the data set: Antibacterial activity against c5-resistant mutant of methicillin-resistant Staphylococcus aureus SA3 m6 assessed as resistance by measuring antibacterial activity after 20 passages at 200 ug/ml by emergence of bacterial resistance assay. The format is functional, organism-based. The following applies: dose 200.0 µg/ml.
Data set [21] deals with Staphylococcus aureus. Put plainly: Antibacterial activity against methicillin-resistant Staphylococcus aureus SA3 assessed as fold increase in MIC measured after 16 passages to MIC during first passage. The format is functional.

Each structure is given as a SMILES string. Activity calls are given as the source filed them. The calls are words filed in the database; no cut-off is given here. Bounds are passed on as bounds.

What is called MIC is the lowest concentration found to suppress growth. Broadly, the IC50 is the concentration that gives 50% inhibition. For `CCCCCCCCn1c2c([n+](Cc3ccccc3)c1C)C(=O)c1ccccc1C2=O.[Br-]`, the minimal inhibitory concentration (MIC) in [1] came out at 0.39 µg/mL; in [2] it was 0.19 µg/mL; in data set [3], 0.39 µg/mL; in data set [4], 6.25 µg/mL; in data set [5] it was 6.25 µg/mL; in data set [6], 6.25 µg/mL. The survival at 72 h in [7] was 75%. Further, in [8], the IC50 at 72 h is 1060 nM. The outcome in [9], in data set [10], in [11], in [14], in data set [15] and in data set [20] was inactive. The outcome in data set [12], in [13] and in [19] was Active. The Activity was greater than 4 log10CFU/ml in data set [16] and “Tde” in data set [17]. Moreover, the Time in data set [18] was 62 h. For the same compound, the “fold change (FC)” value in data set [21] was 4.
